Target: T1, TRESK (Mus musculus, UniProt Q6VV64)
T1 construct: gene Kcnk18
T1 sequence (Q6VV64 1-394): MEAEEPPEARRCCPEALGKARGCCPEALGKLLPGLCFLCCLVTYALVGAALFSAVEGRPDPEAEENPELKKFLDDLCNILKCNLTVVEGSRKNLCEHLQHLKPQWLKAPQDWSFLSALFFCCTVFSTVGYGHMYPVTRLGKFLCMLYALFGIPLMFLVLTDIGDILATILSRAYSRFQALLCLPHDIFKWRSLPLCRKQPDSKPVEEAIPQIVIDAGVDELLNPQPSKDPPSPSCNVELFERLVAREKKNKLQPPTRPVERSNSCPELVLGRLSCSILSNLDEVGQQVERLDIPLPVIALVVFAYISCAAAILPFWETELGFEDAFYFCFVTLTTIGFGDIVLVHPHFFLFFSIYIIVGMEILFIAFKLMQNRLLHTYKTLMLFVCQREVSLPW
Assay: whole-cell patch clamp, photoblock of mouse versus human channel
Type: cell-based

## COc1ccccc1C(=O)Nc1cccc(N=Nc2cccc(C)c2)c1 [LAKI]
  whole-cell patch clamp, photoblock of mouse versus human channel: LAKI photoblock is conserved among species since TRESK and TRAAK channel inhibitions are similar in mouse and human
